Values quoted from earlier work, collected in patent US11084814B2, “Pyrido[3, 4-d]pyrimidine derivative and pharmaceutically acceptable salt thereof” (Teijin Pharma Limited, priority 2016, dated 2021).

Tested on: neuronal death caused by local ischemia
Conditions: rat cerebral infarction model; cited from earlier work

Q: With `CN1CC[C@H](c2c(O)cc(O)c3c(=O)cc(-c4ccccc4Cl)oc23)[C@H](O)C1` [flavopiridol] as the compound, how does the neuronal death read?
A: reduced
